In US9283222B2 (priority 2006, dated 2016):

Biological target: Recombinant Human Poly(ADP-Ribose) Polymerase (PARP), PARP-1 (Homo sapiens (Human), UniProt P09874)
Settings: read-out: PARP-1 (Ki); Table 1; text calls the values EC50s

Chain of Recombinant Human Poly(ADP-Ribose) Polymerase (PARP), PARP-1 (P09874 whole entry): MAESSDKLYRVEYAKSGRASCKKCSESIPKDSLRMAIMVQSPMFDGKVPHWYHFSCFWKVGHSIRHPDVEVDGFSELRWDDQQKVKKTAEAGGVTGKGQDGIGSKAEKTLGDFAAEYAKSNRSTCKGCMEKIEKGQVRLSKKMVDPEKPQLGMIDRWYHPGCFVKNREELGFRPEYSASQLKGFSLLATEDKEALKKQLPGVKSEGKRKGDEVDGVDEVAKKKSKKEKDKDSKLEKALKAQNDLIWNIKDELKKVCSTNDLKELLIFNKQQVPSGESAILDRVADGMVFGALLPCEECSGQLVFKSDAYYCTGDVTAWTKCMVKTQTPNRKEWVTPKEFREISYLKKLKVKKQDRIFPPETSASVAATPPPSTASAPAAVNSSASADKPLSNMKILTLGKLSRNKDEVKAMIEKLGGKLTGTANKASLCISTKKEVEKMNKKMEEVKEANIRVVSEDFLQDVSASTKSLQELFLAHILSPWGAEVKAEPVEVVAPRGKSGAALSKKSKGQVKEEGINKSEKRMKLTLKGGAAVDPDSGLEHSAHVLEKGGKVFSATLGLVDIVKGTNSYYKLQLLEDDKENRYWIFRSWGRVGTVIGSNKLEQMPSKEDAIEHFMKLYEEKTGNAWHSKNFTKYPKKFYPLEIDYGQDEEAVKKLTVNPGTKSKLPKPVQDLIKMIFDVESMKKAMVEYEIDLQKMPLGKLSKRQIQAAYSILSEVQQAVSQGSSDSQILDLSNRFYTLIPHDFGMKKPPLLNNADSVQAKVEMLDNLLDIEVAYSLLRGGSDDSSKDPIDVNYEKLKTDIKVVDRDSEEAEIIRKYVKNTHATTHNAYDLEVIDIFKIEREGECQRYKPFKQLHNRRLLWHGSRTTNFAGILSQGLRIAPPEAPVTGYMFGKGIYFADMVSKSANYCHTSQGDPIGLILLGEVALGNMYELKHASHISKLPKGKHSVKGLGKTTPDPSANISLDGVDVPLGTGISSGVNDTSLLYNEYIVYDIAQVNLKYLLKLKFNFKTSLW

In order of rising Ki:
1. O=C1CCCC(=O)N1c1cc(Cc2n[nH]c(=O)c3c2CCCC3)ccc1F [Example 303, 1-(2-fluoro-5-((4-oxo-3,4,5,6,7,8-hexahydrophthalazin-1-yl)methyl)phenyl)piperidine-2,6-dione]  0.8 nM
2. O=C1C2CCCCC2C(=O)N1c1cc(Cc2n[nH]c(=O)c3c2CCCC3)ccc1F (centres unmarked) [Example 298, 2-(2-fluoro-5-((4-oxo-3,4,5,6,7,8-hexahydrophthalazin-1-yl)methyl)phenyl)hexahydro-1H-isoindole-1,3(2H)-dione]  2 nM
3. O=c1[nH]nc(Cc2ccc(F)c(N3CCCS3(=O)=O)c2)c2c1CCCC2 [Example 305, 4-(3-(1,1-dioxidoisothiazolidin-2-yl)-4-fluorobenzyl)-5,6,7,8-tetrahydrophthalazin-1(2H)-one]  3 nM
4. CC1(C)CC(=O)N(c2cc(Cc3n[nH]c(=O)c4c3CCCC4)ccc2F)C1=O [Example 299, 1-(2-fluoro-5-((4-oxo-3,4,5,6,7,8-hexahydrophthalazin-1-yl)methyl)phenyl)-3,3-dimethylpyrrolidine-2,5-dione]  4 nM
5. O=C(NCCCN1CCCC1)c1cccc(Cc2n[nH]c(=O)c3c2CCCC3)c1 [Example 315, 3-((4-oxo-3,4,5,6,7,8-hexahydrophthalazin-1-yl)methyl)-N-(3-pyrrolidin-1-ylpropyl)benzamide]  23 nM
6. O=C(NCCCN1CCOCC1)c1cccc(Cc2n[nH]c(=O)c3c2CCCC3)c1 [Example 317, N-(3-morpholin-4-ylpropyl)-3-((4-oxo-3,4,5,6,7,8-hexahydrophthalazin-1-yl)methyl)benzamide]  25 nM
7. O=C(NCc1ccsc1)c1cccc(Cc2n[nH]c(=O)c3c2CCCC3)c1 [Example 310, 3-((4-oxo-3,4,5,6,7,8-hexahydrophthalazin-1-yl)methyl)-N-(thien-3-ylmethyl)benzamide]  26 nM
8. O=C(NCCc1c[nH]c2ccccc12)c1cccc(Cc2n[nH]c(=O)c3c2CCCC3)c1 [Example 318, N-(2-(1H-indol-3-yl)ethyl)-3-((4-oxo-3,4,5,6,7,8-hexahydrophthalazin-1-yl)methyl)benzamide]  28 nM
9. O=C(NCc1cccs1)c1cccc(Cc2n[nH]c(=O)c3c2CCCC3)c1 [Example 309, 3-((4-oxo-3,4,5,6,7,8-hexahydrophthalazin-1-yl)methyl)-N-(thien-2-ylmethyl)benzamide]  29 nM
10. CN(C)CCCNC(=O)c1cccc(Cc2n[nH]c(=O)c3c2CCCC3)c1 [Example 314, N-(3-(dimethylamino)propyl)-3-((4-oxo-3,4,5,6,7,8-hexahydrophthalazin-1-yl)methyl)benzamide]  32 nM
11. O=C(NCCCN1CCCCC1)c1cccc(Cc2n[nH]c(=O)c3c2CCCC3)c1 [Example 316, 3-((4-oxo-3,4,5,6,7,8-hexahydrophthalazin-1-yl)methyl)-N-(3-piperidin-1-ylpropyl)benzamide]  34 nM
12. O=C(NCc1cccnc1)c1cccc(Cc2n[nH]c(=O)c3c2CCCC3)c1 [Example 311, 3-((4-oxo-3,4,5,6,7,8-hexahydrophthalazin-1-yl)methyl)-N-(pyridin-3-ylmethyl)benzamide]  58 nM
13. O=C(Nc1nccs1)c1cccc(Cc2n[nH]c(=O)c3c2CCCC3)c1 [Example 319, 3-((4-oxo-3,4,5,6,7,8-hexahydrophthalazin-1-yl)methyl)-N-1,3-thiazol-2-ylbenzamide]  94 nM
14. CN(C)CCNC(=O)c1cccc(Cc2n[nH]c(=O)c3c2CCCC3)c1 [Example 313, N-(2-(dimethylamino)ethyl)-3-((4-oxo-3,4,5,6,7,8-hexahydrophthalazin-1-yl)methyl)benzamide]  95 nM
15. CCc1cccc(NC(=O)c2cccc(Cc3n[nH]c(=O)c4c3CCCC4)c2)c1 [Example 330, N-(3-ethylphenyl)-3-((4-oxo-3,4,5,6,7,8-hexahydrophthalazin-1-yl)methyl)benzamide]  99 nM
16. O=C(NCc1ccncc1)c1cccc(Cc2n[nH]c(=O)c3c2CCCC3)c1 [Example 312, 3-((4-oxo-3,4,5,6,7,8-hexahydrophthalazin-1-yl)methyl)-N-(pyridin-4-ylmethyl)benzamide]  131 nM
17. CCc1ccc(NC(=O)c2cccc(Cc3n[nH]c(=O)c4c3CCCC4)c2)cc1 [Example 331]  140 nM
18. O=C(CNC(=O)OCc1ccccc1)Nc1cccc(CCc2n[nH]c(=O)c3c2CCCC3)c1 [Example 320, benzyl 2-oxo-2-(3-(2-(4-oxo-3,4,5,6,7,8-hexahydrophthalazin-1-yl)ethyl)phenylamino)ethylcarbamate]  165 nM
19. CC(C)c1ccc(NC(=O)c2cccc(Cc3n[nH]c(=O)c4c3CCCC4)c2)cc1 [Example 334, N-(4-isopropylphenyl)-3-((4-oxo-3,4,5,6,7,8-hexahydrophthalazin-1-yl)methyl)benzamide]  191 nM
20. O=C(CCC(=O)c1ccccc1)Nc1cccc(CCc2n[nH]c(=O)c3c2CCCC3)c1 [Example 294, 4-oxo-N-(3-(2-(4-oxo-3,4,5,6,7,8-hexahydrophthalazin-1-yl)ethyl)phenyl)-4-phenylbutanamide]  204 nM
21. O=C(CCC(=O)c1ccc(Oc2ccccc2)cc1)Nc1cccc(CCc2n[nH]c(=O)c3c2CCCC3)c1 [Example 321, 4-oxo-N-(3-(2-(4-oxo-3,4,5,6,7,8-hexahydrophthalazin-1-yl)ethyl)phenyl)-4-(4-phenoxyphenyl)butanamide]  223 nM
22. Cc1ccc(OCC(=O)Nc2cccc(CCc3n[nH]c(=O)c4c3CCCC4)c2)cc1 [Example 323, 2-(4-methylphenoxy)-N-(3-(2-(4-oxo-3,4,5,6,7,8-hexahydrophthalazin-1-yl)ethyl)phenyl)acetamide]  237 nM
23. O=C(Nc1cccc(CCc2n[nH]c(=O)c3c2CCCC3)c1)C1CCCN(C(=O)OCc2ccccc2)C1 (centres unmarked) [Example 322, benzyl 3-(((3-(2-(4-oxo-3,4,5,6,7,8-hexahydrophthalazin-1-yl)ethyl)phenyl)amino)carbonyl)piperidine-1-carboxylate]  556 nM
24. CCCc1ccccc1NC(=O)c1cccc(Cc2n[nH]c(=O)c3c2CCCC3)c1 [Example 332, 3-((4-oxo-3,4,5,6,7,8-hexahydrophthalazin-1-yl)methyl)-N-(2-propylphenyl)benzamide]  635 nM
25. CC(=O)Nc1cccc(-c2cc(C(C)Cc3n[nH]c(=O)c4c3CCCC4)ccc2F)c1 (centres unmarked) [Example 296, N-(2′-fluoro-5′-(1-methyl-2-(4-oxo-3,4,5,6,7,8-hexahydrophthalazin-1-yl)ethyl)-1,1′-biphenyl-3-yl)acetamide]  683 nM
26. CCc1ccccc1NC(=O)c1cccc(Cc2n[nH]c(=O)c3c2CCCC3)c1 [Example 329, N-(2-ethylphenyl)-3-((4-oxo-3,4,5,6,7,8-hexahydrophthalazin-1-yl)methyl)benzamide]  789 nM
27. CC(C)c1ccccc1NC(=O)c1cccc(Cc2n[nH]c(=O)c3c2CCCC3)c1 [Example 333, N-(2-isopropylphenyl)-3-((4-oxo-3,4,5,6,7,8-hexahydrophthalazin-1-yl)methyl)benzamide]  892 nM
28. CC(Cc1n[nH]c(=O)c2c1CCCC2)c1ccc(F)c(-c2cccc(C(N)=O)c2)c1 (centres unmarked) [Example 295, 2′-fluoro-5′-(1-methyl-2-(4-oxo-3,4,5,6,7,8-hexahydrophthalazin-1-yl)ethyl)-1,1′-biphenyl-3-carboxamide]  912 nM
29. CC(Cc1n[nH]c(=O)c2c1CCCC2)c1ccc(F)c(-c2cccc(CNS(C)(=O)=O)c2)c1 (centres unmarked) [Example 297]  1440 nM
